Assay results taken from ChEMBL document CHEMBL1137798, “Evaluation of natural products as inhibitors of human immunodeficiency virus type 1 (HIV-1) reverse transcriptase” (J Nat Prod, 1991).
Where a name gives a salt, the structure may show the parent alone.

What follows are compounds tested against Human immunodeficiency virus type 1 reverse transcriptase (Human immunodeficiency virus 1, UniProt Q72547). Conditions: read-out: IC50 (converted).

Row | SMILES | IC50 [µM]
1 | CC(C)=CCC[C@](C)(O[C@@H]1O[C@H](CO)[C@@H](O)[C@H](O)[C@H]1O)[C@H]1CC[C@]2(C)[C@@H]1[C@H](O)C[C@@H]1[C@@]3(C)CC[C@H](O)C(C)(C)[C@@H]3[C@@H](O[C@@H]3O[C@H](CO)[C@@H](O)[C@H](O)[C@H]3O[C@@H]3O[C@@H](C)[C@H](O)[C@@H](O)[C@H]3O)C[C@]12C [GINSENOSIDE RE] | > 211
2 | C=C(C)C(O)C(O)c1cc2ccc(=O)oc2cc1OC (stereo unspecified) [THAMNOSMONIN] | > 724
3 | CC(=O)O[C@@H]1[C@@H](O)[C@H](O[C@H]2[C@H](OC(=O)[C@H]3CC[C@@H]4[C@H](C3)O[C@@]3(C[C@H](OC(=O)/C=C/c5ccccc5)[C@H](C)CO3)[C@]43CO3)O[C@H](C)[C@@H](O)[C@@H]2OC(C)=O)O[C@H](C)[C@H]1O [PHYLLANTHOSIDE] | > 248
4 | COC(=O)[C@@]12OC[C@]34[C@H]([C@@H](O)[C@@H]1O)[C@@]1(C)CC(=O)C(O)=C(C)[C@@H]1C[C@H]3OC(=O)[C@H](OC(=O)/C=C(\C)C(C)C)[C@@H]24 [BRUCEANTIN] | > 365
5 | C1CCN2C[C@@H]3C[C@@H](CN4CCCC[C@@H]34)[C@H]2C1 [SPARTEINE SULFATE] | > 473
6 | COc1cc2c(cc1OC)[C@@H]1Cc3ccc(OC)c(OC)c3CN1CC2 [TETRAHYDROPALMATINE] | > 563
7 | O=c1c(O)c(-c2ccc(O)cc2)oc2cc(O)cc(O)c12 [KAEMPFEROL] | < 524
8 | C=C(C)[C@H]1Cc2c(ccc3c2O[C@@H]2COc4cc(OC)c(OC)cc4[C@]2(O)C3=O)O1 [ROTENOLONE] | > 487
9 | CC[C@H]1CN2CCc3cc(OC)c(OC)cc3[C@@H]2C[C@@H]1CC1=NCCc2cc(OC)c(OC)cc21 | 17.3
10 | CC1(C)CC[C@]2(CO)[C@H](O)C[C@]3(C)C(=CC[C@@H]4[C@@]5(C)CC[C@H](O)C(C)(C)[C@@H]5CC[C@]43C)[C@@H]2C1 [PRIMULAGENIN] | > 436
11 | O=C1C[C@]23C=CCN4CC[C@H]5c6cc7c(cc6N1[C@@]5(CC2)[C@@H]43)OCO7 [SCHIZOZYGINE] | > 595
12 | COc1cc(O)c2c(=O)cc(-c3ccc(O)cc3)oc2c1 [GENKWANIN] | > 704
13 | COc1coc(CO)cc1=O | > 1280
14 | C/C=C/C=C1\C=Cc2c(C(=O)OC)coc(=O)c21 [FULVOPLUMIERIN] | 184
15 | COc1ccc2c(c1OC)CN1CCc3cc4c(cc3C1=C2)OCO4 [DIHYDROBERBERINE] | > 593
16 | C=C1C/C(=C/C)C(=O)O[C@@H]2CCN3CC=C(COC(=O)[C@]1(C)O)[C@H]23 [SENECIPHYLLINE] | > 600
17 | CC1(C)O[C@H]2CC(=O)OC[C@]23[C@H]2CC[C@@]4(C)[C@H](c5ccoc5)OC(=O)[C@H]5O[C@]54[C@]2(C)C(=O)C[C@@H]13 [LIMONIN] | > 425
18 | O[C@H]1[C@H]2[C@H](O)CCCN2C[C@H]1O [TRIDOLGOSIR] | > 1150
19 | COc1ccc2cc1Oc1ccc(cc1)C[C@H]1c3cc(c(OC)cc3CCN1C)Oc1c(OC)c(OC)c(OC)c3c1[C@H](C2)N(C)CC3 [HERNANDEZINE] | > 306
20 | COC(=O)CC1(O)C=CC(=O)C=C1 [JACARANONE] | > 1100
21 | O=c1c(O)c(-c2ccc(O)c(O)c2)oc2cc(O)cc(O)c12 [QUERCETIN] | < 662

Row | SMILES | IC50 [µM]
22 | COC(=O)C[C@](O)(CCC(C)(C)O)C(=O)O[C@@H]1C(OC)=C[C@]23CCCN2CCc2cc4c(cc2[C@H]13)OCO4 [HARRINGTONINE] | > 376
23 | COC(=O)C1=CO[C@@H](C)[C@@H]2CN3CCc4c([nH]c5ccccc45)[C@@H]3C[C@H]12 [TETRAHYDROALSTONINE] | > 567
24 | CC[C@H]1[C@@H]2C[C@H]3[C@@H]4N(C)c5ccccc5[C@]45C[C@@H]([C@@H]2[C@H]5O)N3[C@@H]1O [AJMALINE] | > 613
25 | COc1c(O)c2c3c(nccc3c1OC)C(C)(C)c1cc(O)ccc1-2 [MELOSMINE] | > 593
26 | O=C1CCC[C@H]2[C@@H]3CCCN4CCC[C@H](CN12)[C@@H]34 [LEONTINE] | > 805
27 | COC(=O)C1=CO[C@@H](O[C@@H]2O[C@H](CO)[C@@H](O)[C@H](O)[C@H]2O)[C@H]2[C@@H]1C=C[C@@]21C=C([C@H](C)OC(=O)/C=C/c2ccc(O)cc2)C(=O)O1 | > 324
28 | CC(=O)O[C@H]1C(=O)[C@@]2(C)[C@H]([C@H](OC(=O)c3ccccc3)[C@]3(O)C[C@H](OC(=O)[C@H](O)[C@@H](NC(=O)c4ccccc4)c4ccccc4)C(C)=C1C3(C)C)[C@]1(OC(C)=O)CO[C@@H]1C[C@@H]2O [PACLITAXEL] | > 234
29 | C[n+]1cc2c3c(ccc2c2ccc4cc5c(cc4c21)OCO5)OCO3 [SANGUINARINE NITRATE] | < 380
30 | C/C=C1/C=[N+]2[C@H]3C[C@H]1[C@H](C(=O)OC)[C@@H]2Cc1c3[nH]c2ccc(O)cc12 [PERICYCLIVINE] | > 593
31 | COc1cc2c(cc1O)CC[n+]1cc3c(OC)c(OC)ccc3cc1-2 [JATRORRHIZINE CHLORIDE] | 190
32 | COc1cc2c(c3c1c(=S)c1ccccc1n3C)C=CC(C)(C)O2 [THIOACRONYCINE] | > 593
33 | COC(=O)[C@H]1[C@H]2C[C@H]3c4[nH]c5ccccc5c4CCN3C[C@@H]2CC[C@@H]1O [CORYNANTHEINE] | > 564
34 | C[C@H]1/C(=C/C(=O)OCCN(C)C)CC[C@H]2[C@H]1C(=O)C[C@H]1C(C)(C)[C@@H](OS(=O)(=O)O)CC[C@]21C [CASSAINE SULFATE] | > 412
35 | C1CCN2C[C@]34C[C@H](C[C@@H]5CCCN([C@@H]6CCC[C@@H]3N6)[C@H]54)[C@H]2C1 [PANAMINE DIPERCHLORATE] | > 387
36 | CC(=O)O[C@H]1CC(=O)OC(C)(C)[C@@H]2CC(=O)[C@]3(C)[C@H](CC[C@@]4(C)[C@@H](c5ccoc5)OC(=O)[C@H]5O[C@]543)[C@@]12C [NOMILIN] | > 389
37 | CC(C)=CCC[C@](C)(O[C@@H]1O[C@H](CO[C@@H]2O[C@H](CO)[C@@H](O)[C@H](O)[C@H]2O)[C@@H](O)[C@H](O)[C@H]1O)[C@H]1CC[C@]2(C)[C@@H]1[C@H](O)C[C@@H]1[C@@]3(C)CC[C@H](O[C@@H]4O[C@H](CO)[C@@H](O)[C@H](O)[C@H]4O[C@@H]4O[C@H](CO)[C@@H](O)[C@H](O)[C@H]4O)C(C)(C)[C@@H]3CC[C@]12C [GINSENOSIDE RB1] | > 180
38 | COc1cc(O)c2c(=O)cc(-c3ccc(O)c(OC)c3)oc2c1 [VELUTIN] | > 636
39 | C/C=C1/CN2[C@H]3C[C@@H]1[C@@H](CO)[C@@H]2Cc1c3[nH]c2ccc(OC)cc12 [LOCHNERINE] | > 616
40 | COc1cc([C@H]2OC[C@H]3[C@@H]2CO[C@@H]3c2cc(OC)c(O[C@@H]3O[C@H](CO)[C@@H](O)[C@H](O)[C@H]3O)c(OC)c2)cc(OC)c1O[C@@H]1O[C@H](CO)[C@@H](O)[C@H](O)[C@H]1O [LIRIODENDRIN] | > 269
41 | CNC[C@H](O)c1cccc(O)c1 [PHENYLEPHRINE] | > 1200
42 | C/C=C1/CN(C=O)[C@H]2Cc3c([nH]c4ccccc34)C(=O)C[C@@H]1[C@@H]2C(=O)OC [PERIFORMYLINE] | > 546

Row | SMILES | IC50 [µM]
43 | C[C@]12CCC(=O)C=C1CC[C@@H]1[C@@H]2CC[C@]2(C)C(=O)CC[C@@H]12 [ANDROSTENEDIONE] | > 698
44 | O=c1oc2c(O)c(O)cc3c(=O)oc4c(O)c(O)cc1c4c23 [ELLAGIC ACID] | < 496
45 | COc1ccc2c(c1OC)C[N+]1(C)CCc3cc4c(cc3C1C2)OCO4 (stereo unspecified) [CANADINE METHCHLORIDE] | > 513
46 | CC[C@H]1C[C@@H]2CN3CCc4c([nH]c5cc(OC)c(OC)cc45)[C@](C(=O)OC)(C2)[C@H]13 [CONOPHARYNGINE] | > 502
47 | COc1cc2c(c(OC)c1OC)-c1ccc(OC)c(=O)cc1[C@@H](NC(C)=O)CC2 [COLCHICINE] | > 501
48 | CN1Cc2c(ccc3c2OCO3)[C@@H]2[C@H]1c1cc3c(cc1C[C@@H]2O)OCO3 [CHELIDONINE] | < 566
49 | CC[C@@]1(O)C(=O)OCc2c1cc1n(c2=O)Cc2cc3ccccc3nc2-1 [CAMPTOTHECIN] | > 574
50 | O=C(/C=C/c1ccc(O)cc1)OC[C@H]1O[C@@H](Oc2c(-c3ccc(O)cc3)oc3cc(O)cc(O)c3c2=O)[C@H](O)[C@@H](O)[C@@H]1O [TILIROSIDE] | < 336
51 | CC[C@]1(O)C[C@H]2CN(CCc3c([nH]c4ccccc34)[C@@](C(=O)OC)(c3cc4c(cc3OC)N(C=O)[C@H]3[C@@](O)(C(=O)OC)[C@H](OC(C)=O)[C@]5(CC)C=CCN6CC[C@]43[C@@H]65)C2)C1 [VINCRISTINE] | > 242
52 | Cn1cncc1C[C@H]1COC(=O)[C@@H]1[C@@H](O)c1ccccc1 [ISOPILOSINE] | > 698
53 | C/C=C1/CN2[C@H]3C[C@H]1[C@@H](CO)[C@@H]2Cc1c3[nH]c2ccc(O)cc12 [SARPAGINE] | > 644
54 | C[C@H]1CC[C@]2(NC1)O[C@H]1C[C@H]3[C@@H]4CC[C@H]5C[C@@H](O[C@@H]6O[C@H](CO)[C@H](O[C@@H]7O[C@H](CO)[C@@H](O)[C@H](O[C@@H]8OC[C@@H](O)[C@H](O)[C@H]8O)[C@H]7O[C@@H]7O[C@H](CO)[C@@H](O)[C@H](O)[C@H]7O)[C@H](O)[C@H]6O)CC[C@]5(C)[C@H]4CC[C@]3(C)[C@H]1[C@@H]2C [TOMATINE] | > 193
55 | COC(=O)[C@@H]1[C@@H](OC)[C@H](OC(=O)c2cc(OC)c(OC)c(OC)c2)C=C2CN3CCc4c([nH]c5ccccc45)[C@@H]3C[C@@H]21 [DESERPIDEINE HYDROCHLORIDE] | > 326
56 | CC1(C)CC[C@]2(C)CC[C@]3(C)C(=CC[C@@H]4[C@@]5(C)CC[C@H](O)C(C)(C)[C@@H]5CC[C@]43C)[C@@H]2C1 [beta-AMYRIN] | > 469
57 | Cc1c2ccncc2c(C)c2c1[nH]c1ccccc12 [ELLIPTECINE] | < 609
58 | C=C[C@H]1C[N@@]2CC[C@H]1C[C@@H]2[C@@H](O)c1ccnc2ccc(OC)cc12 [QUINIDINE SULFATE] | > 511
59 | CC(C)(O)CC[C@@H](O)[C@](C)(O)[C@H]1CC[C@@]2(O)C3=CC(=O)[C@]4(O)C[C@@H](O)[C@@H](O)C[C@]4(C)[C@H]3CC[C@]12C [POLYPODIN] | > 403
60 | CC(=O)N[C@H]1[C@H](O[C@H]2CC[C@]3(C)[C@H]4CC=C5[C@H]6CC(C)(C)CC[C@]6(C(=O)O)CC[C@@]5(C)[C@]4(C)CC[C@H]3C2(C)C)O[C@H](CO)[C@@H](O)[C@@H]1O [ARIDANIN] | > 303
61 | C/C=C(/C)C(=O)O[C@H]1CCN2CC=C(COC(=O)[C@](O)([C@H](C)OC)C(C)(C)O)[C@H]12 [LASIOCARPINE] | > 486
